{
  "source": "patent US11807644B2",
  "about": "(PMV Pharmaceuticals, Inc., priority 2020, dated 2023)",
  "target": "T1, recombinant His-tag Y220C p53 DBD protein (Homo sapiens, UniProt P04637, Y220C)",
  "T1 construct": "recombinant His-tag Y220C p53 DBD protein (amino acids #˜94-312)",
  "test": "In vitro DNA binding activity assay (TR-FRET): binding of His-tag Y220C p53 DBD to biotin-labeled consensus DNA",
  "format": "biochemical",
  "conditions": "for Y220C SC150 (μM): SC150 = concentration to increase DNA binding by […], His-tag Y220C p53 DBD, biotin-labeled consensus DNA; for SC150 (μM): concentration to increase DNA binding by […], incubated at either 27° C. or 29° C. for 60 min",
  "data": [
    {"smiles": "CN1CC[C@@H](Nc2cccc3c2cc(-c2noc(CNC(=O)c4ccn(C5CCCC5F)c4)n2)n3CC(F)(F)F)[C@@H](F)C1", "note": "(stereo in doubt) [Compound 392B, N-{[3-(4-{[(3S,4R)-3-fluoro-1-methylpiperidin-4-yl]amino}-1-(2,2,2-trifluoroethyl)-1H-indol-2-yl)-1,2,4-oxadiazol-5-yl]methyl}-1-[(1R,2R)-2-fluorocyclopentyl]-1H-pyrrole-3-carboxamide]", "values": [
      {"measurement": "Y220C SC150 (μM)", "value": "* (* = 0 μM ≤ SC150 < 0.1 μM)"}
    ]},
    {"smiles": "CN1CC[C@@H](Nc2cccc3c2cc(-c2noc(CNc4cccc5c4cnn5C)n2)n3CC(F)(F)F)[C@@H](F)C1", "note": "[Compound 463B, N-{[3-(4-{[(3S,4R)-3-fluoro-1-methylpiperidin-4-yl]amino}-1-(2,2,2-trifluoroethyl)-1H-indol-2-yl)-1,2,4-oxadiazol-5-yl]methyl}-1-methyl-1H-indazol-4-amine]", "values": [
      {"measurement": "Y220C SC150 (μM)", "value": "* (* = 0 μM ≤ SC150 < 0.1 μM)"}
    ]},
    {"smiles": "COCC(O)CN1CCC(Nc2cccc3c2cc(-c2cccc(NC(C)=O)c2)n3CC(F)(F)F)CC1", "note": "(stereo not drawn) [Compound 51A, N-[3-(4-{[1-(2-hydroxy-3-methoxypropyl)piperidin-4-yl]amino}-1-(2,2,2-trifluoroethyl)-1H-indol-2-yl)phenyl]acetamide]", "values": [
      {"measurement": "SC150 (μM)", "value": "++++ (++++ = 10 μM ≤ SC150 < 35 μM)"}
    ]},
    {"smiles": "CO[C@]1(C)CC[C@H](n2ccc(C(=O)NCc3nc(-c4cc5c(N[C@@H]6CCN(C)C[C@@H]6F)cccc5n4CC(F)(F)F)no3)c2)C1", "note": "(racemic) [Compound 387B, cis-N-{[3-(4-{[(3S,4R)-3-fluoro-1-methylpiperidin-4-yl]amino}-1-(2,2,2-trifluoroethyl)-1H-indol-2-yl)-1,2,4-oxadiazol-5-yl]methyl}-1-[(1R,3S)-3-methoxy-3-methylcyclopentyl]-1H-pyrrole-3-carboxamide]", "values": [
      {"measurement": "Y220C SC150 (μM)", "value": "* (* = 0 μM ≤ SC150 < 0.1 μM)"}
    ]},
    {"smiles": "CC(C)N1CC[C@@H](Nc2cccc3c2cc(-c2noc(CNC(=O)c4cnn(C(C)(C)C)c4)n2)n3CC(F)(F)F)[C@@H](F)C1", "note": "[Compound 316B, 1-tert-butyl-N-{[3-(4-{[(3S,4R)-3-fluoro-1-(propan-2-yl)piperidin-4-yl]amino}-1-(2,2,2-trifluoroethyl)-1H-indol-2-yl)-1,2,4-oxadiazol-5-yl]methyl}-1H-pyrazole-4-carboxamide]", "values": [
      {"measurement": "Y220C SC150 (μM)", "value": "* (* = 0 μM ≤ SC150 < 0.1 μM)"}
    ]},
    {"smiles": "CN1CC[C@H](F)[C@H](Nc2cccc3c2cc(-c2noc(CNC(=O)c4ccn(C5(C)CCOCC5)c4)n2)n3CC(F)(F)F)C1", "note": "[Compound 403B, N-{[3-(4-{[(3R,4S)-4-fluoro-1-methylpiperidin-3-yl]amino}-1-(2,2,2-trifluoroethyl)-1H-indol-2-yl)-1,2,4-oxadiazol-5-yl]methyl}-1-(4-methyloxan-4-yl)-1H-pyrrole-3-carboxamide]", "values": [
      {"measurement": "Y220C SC150 (μM)", "value": "* (* = 0 μM ≤ SC150 < 0.1 μM)"}
    ]},
    {"smiles": "CN1CC[C@@H](Nc2cccc3c2cc(-c2noc(CNC(=O)c4cn(CCF)cn4)n2)n3CC(F)(F)F)[C@@H](F)C1", "note": "[Compound 306B, N-{[3-(4-{[(3S,4R)-3-fluoro-1-methylpiperidin-4-yl]amino}-1-(2,2,2-trifluoroethyl)-1H-indol-2-yl)-1,2,4-oxadiazol-5-yl]methyl}-1-(2-fluoroethyl)-1H-imidazole-4-carboxamide]", "values": [
      {"measurement": "Y220C SC150 (μM)", "value": "* (* = 0 μM ≤ SC150 < 0.1 μM)"}
    ]},
    {"smiles": "CCN1CC[C@H](Nc2cccc3c2cc(-c2noc(CNC(=O)c4ccn(C(C)(C)C)c4)n2)n3CC(F)(F)F)[C@H](F)C1", "note": "[Compound 299B, 1-tert-butyl-N-{[3-(4-{[(3R,4S)-1-ethyl-3-fluoropiperidin-4-yl]amino}-1-(2,2,2-trifluoroethyl)-1H-indol-2-yl)-1,2,4-oxadiazol-5-yl]methyl}-1H-pyrrole-3-carboxamide]", "values": [
      {"measurement": "Y220C SC150 (μM)", "value": "* (* = 0 μM ≤ SC150 < 0.1 μM)"}
    ]},
    {"smiles": "COCC(C)(C)n1cc(C(=O)NCc2nc(-c3cc4c(N[C@H]5CCN(C(C)(C)C)C[C@@H]5F)cccc4n3CC(F)(F)F)no2)cn1", "note": "(racemic) [Compound 411B, N-{[3-(4-{[(3R,4R)-1-tert-butyl-3-fluoropiperidin-4-yl]amino}-1-(2,2,2-trifluoroethyl)-1H-indol-2-yl)-1,2,4-oxadiazol-5-yl]methyl}-1-(1-methoxy-2-methylpropan-2-yl)-1H-pyrazole-4-carboxamide]", "values": [
      {"measurement": "Y220C SC150 (μM)", "value": "* (* = 0 μM ≤ SC150 < 0.1 μM)"}
    ]},
    {"smiles": "CN1CCC(Nc2cccc3c2cc(-c2nnc(CNC(=O)c4ccccc4F)s2)n3CC(F)(F)F)CC1", "note": "[Compound 50B, 2-fluoro-N-[(5-{4-[(1-methylpiperidin-4-yl)amino]-1-(2,2,2-trifluoroethyl)-1H-indol-2-yl}-1,3,4-thiadiazol-2-yl)methyl]benzamide]", "values": [
      {"measurement": "Y220C SC150 (μM)", "value": "** (** = 0.1 μM ≤ SC150 < 0.5 μM)"}
    ]},
    {"smiles": "CN1CC[C@@H](Nc2cccc3c2cc(-c2noc(CNC(=O)c4ccn(CC5CC5)c4)n2)n3CC(F)(F)F)[C@@H](F)C1", "note": "[Compound 241B, 1-(cyclopropylmethyl)-N-{[3-(4-{[(3S,4R)-3-fluoro-1-methylpiperidin-4-yl]amino}-1-(2,2,2-trifluoroethyl)-1H-indol-2-yl)-1,2,4-oxadiazol-5-yl]methyl}-1H-pyrrole-3-carboxamide]", "values": [
      {"measurement": "Y220C SC150 (μM)", "value": "* (* = 0 μM ≤ SC150 < 0.1 μM)"}
    ]},
    {"smiles": "CN1CC[C@@H](Nc2cccc3c2cc(-c2noc(CNC(=O)[C@H]4C[C@H]4c4ccccc4)n2)n3CC(F)(F)F)[C@@H](F)C1", "note": "[Compound 206B, (1S,2R)-N-{[3-(4-{[(3S,4R)-3-fluoro-1-methylpiperidin-4-yl]amino}-1-(2,2,2-trifluoroethyl)-1H-indol-2-yl)-1,2,4-oxadiazol-5-yl]methyl}-2-phenylcyclopropane-1-carboxamide]", "values": [
      {"measurement": "Y220C SC150 (μM)", "value": "* (* = 0 μM ≤ SC150 < 0.1 μM)"}
    ]},
    {"smiles": "C[C@@H]1C[C@H]1C(=O)NCc1nc(-c2cc3c(NC4CCN(C)CC4)cccc3n2CC(F)(F)F)no1", "note": "(racemic) [Compound 157B, (+/−)-(1R,2R)-2-methyl-N-[(3-{4-[(1-methylpiperidin-4-yl)amino]-1-(2,2,2-trifluoroethyl)-1H-indol-2-yl}-1,2,4-oxadiazol-5-yl)methyl]cyclopropane-1-carboxamide]", "values": [
      {"measurement": "Y220C SC150 (μM)", "value": "* (* = 0 μM ≤ SC150 < 0.1 μM)"}
    ]},
    {"smiles": "CN1CC[C@@H](Nc2cccc3c2cc(-c2noc(CNC(=O)[C@@H]4C[C@H]4CN4CCCC4)n2)n3CC(F)(F)F)[C@@H](F)C1", "note": "[Compound 265B, (1R,2R)-N-{[3-(4-{[(3S,4R)-3-fluoro-1-methylpiperidin-4-yl]amino}-1-(2,2,2-trifluoroethyl)-1H-indol-2-yl)-1,2,4-oxadiazol-5-yl]methyl}-2-[(pyrrolidin-1-yl)methyl]cyclopropane-1-carboxamide]", "values": [
      {"measurement": "Y220C SC150 (μM)", "value": "* (* = 0 μM ≤ SC150 < 0.1 μM)"}
    ]},
    {"smiles": "COCCn1cncc1C(=O)NCc1nc(-c2cc3c(N[C@@H]4CCN(C)C[C@@H]4F)cccc3n2CC(F)(F)F)no1", "note": "[Compound 268B, N-{[3-(4-{[(3S,4R)-3-fluoro-1-methylpiperidin-4-yl]amino}-1-(2,2,2-trifluoroethyl)-1H-indol-2-yl)-1,2,4-oxadiazol-5-yl]methyl}-1-(2-methoxyethyl)-1H-imidazole-5-carboxamide]", "values": [
      {"measurement": "Y220C SC150 (μM)", "value": "* (* = 0 μM ≤ SC150 < 0.1 μM)"}
    ]},
    {"smiles": "CCN1CC[C@@H](Nc2cccc3c2cc(-c2noc(CNC(=O)c4ccn(C5CCC(F)(F)C5)c4)n2)n3CC(F)(F)F)[C@@H](F)C1", "note": "(stereo partly drawn) [Compound 346B, 1-(3,3-difluorocyclopentyl)-N-{[3-(4-{[(3S,4R)-1-ethyl-3-fluoropiperidin-4-yl]amino}-1-(2,2,2-trifluoroethyl)-1H-indol-2-yl)-1,2,4-oxadiazol-5-yl]methyl}-1H-pyrrole-3-carboxamide]", "values": [
      {"measurement": "Y220C SC150 (μM)", "value": "* (* = 0 μM ≤ SC150 < 0.1 μM)"}
    ]},
    {"smiles": "CN1CCC(NCc2ccc3c(c2)cc(-c2ccc(CNc4ccc(S(C)(=O)=O)cc4)cc2)n3CC(F)(F)F)CC1", "note": "[Compound 36A, N-{[2-(4-{[(4-methanesulfonylphenyl)amino]methyl}phenyl)-1-(2,2,2-trifluoroethyl)-1H-indol-5-yl]methyl}-1-methylpiperidin-4-amine]", "values": [
      {"measurement": "SC150 (μM)", "value": "++ (++ = 2 μM ≤ SC150 < 5 μM)"}
    ]},
    {"smiles": "COCC(C)(C)c1cc(C(=O)NCc2nc(-c3cc4c(N[C@@H]5CCN(C)C[C@@H]5F)cccc4n3CC(F)(F)F)no2)cs1", "note": "[Compound 485B, N-{[3-(4-{1[(3S,4R)-3-fluoro-1-methylpiperidin-4-yl]amino}-1-(2,2,2-trifluoroethyl)-1H-indol-2-yl)-1,2,4-oxadiazol-5-yl]methyl}-5-(1-methoxy-2-methylpropan-2-yl)thiophene-3-carboxamide]", "values": [
      {"measurement": "Y220C SC150 (μM)", "value": "* (* = 0 μM ≤ SC150 < 0.1 μM)"}
    ]},
    {"smiles": "CN1CCC(Nc2cccc3c2cc(-c2noc(CNC(=O)c4ccc(Cl)cc4)n2)n3CC(F)(F)F)CC1", "note": "[Compound 148B, 4-chloro-N-[(3-{4-[(1-methylpiperidin-4-yl)amino]-1-(2,2,2-trifluoroethyl)-1H-indol-2-yl}-1,2,4-oxadiazol-5-yl)methyl]benzamide]", "values": [
      {"measurement": "Y220C SC150 (μM)", "value": "* (* = 0 μM ≤ SC150 < 0.1 μM)"}
    ]},
    {"smiles": "COc1ccc(NCc2nc(-c3cc4c(N[C@@H]5CCN(C)C[C@@H]5F)cccc4n3CC(F)(F)F)no2)nc1", "note": "[Compound 378B, N-[(3S,4R)-3-fluoro-1-methylpiperidin-4-yl]-2-(5-{[(5-methoxypyridin-2-yl)amino]methyl}-1,2,4-oxadiazol-3-yl)-1-(2,2,2-trifluoroethyl)-1H-indol-4-amine]", "values": [
      {"measurement": "Y220C SC150 (μM)", "value": "* (* = 0 μM ≤ SC150 < 0.1 μM)"}
    ]},
    {"smiles": "CC(C)(C)n1ccc(C(=O)NCc2nc(-c3cc4c(N[C@@H]5CCOC[C@H]5F)cccc4n3CC(F)(F)F)no2)c1", "note": "[Compound 512B, 1-tert-butyl-N-{[3-(4-{[(3S,4R)-3-fluorooxan-4-yl]amino}-1-(2,2,2-trifluoroethyl)-1H-indol-2-yl)-1,2,4-oxadiazol-5-yl]methyl}-1H-pyrrole-3-carboxamide]", "values": [
      {"measurement": "Y220C SC150 (μM)", "value": "* (* = 0 μM ≤ SC150 < 0.1 μM)"}
    ]}
  ]
}
